Assays:
Format in all cases: binding
TEAD1 = TEAD1 (Homo sapiens (Human), UniProt P28347); test: TEAD lipid pocket TR-FRET (Lipid HTRF) probe competition assay; settings: 30 mins incubation with compound; read-out: Lipid HTRF TEAD1 IC50
Protocol: (§1) His-tagged TEAD proteins are pre-incubated with TEAD project compounds for 30 minutes or 4 hours at room temperature. Biotinylated lipid pocket probes are then added to the TEAD/Compound mixture and incubated for 60 minutes at room temperature. The lipid pocket probe competes with the test compound for the TEAD lipid pocket until equilibrium is reached. After 60 minutes, Europium labelled anti-His (Perkin Elmer #ADO 110) and XL665 labelled streptavidin (CIS Bio 610SAXAC) are added to the TEAD/test compound/lipid pocket mixture and incubated for 30 minutes or 4 hours. […] If a TEAD lipid pocket binder such as binds and displaces the lipid pocket probe, the disruption of the TEAD:probe interaction results in a decrease in TR-FRET signal. The potency of compounds as TEAD lipid pocket binders is determined by IC50 value generated using a non-linear 4 parameter curve fit.
(§2) Note that the “Compound Number” in Table 2 and Table 3 corresponds to the “Compound Number” in Table 1.

TEAD2 = TEAD2 (Homo sapiens (Human), UniProt Q15562); test: as above; settings: 30 mins incubation with compound; read-out: Lipid HTRF TEAD2 IC50
Protocol: as §1, §2

TEAD3 = TEAD3 (Homo sapiens (Human), UniProt Q99594); test: as above; settings: 30 mins incubation with compound
Protocol: as §1, §2

TEAD4 = TEAD4 (Homo sapiens (Human), UniProt Q15561); test: as above; settings: 30 mins incubation with compound; read-out: Lipid HTRF TEAD4 IC50
Protocol: as §1, §2

TEAD1 YAP50-100 = TEAD1 YAP50-100 (Homo sapiens (Human), UniProt P28347); test: TEAD-YAP protein-protein interaction HTRF assay; settings: TEAD1 YAP50-100 HTRF combined EC50, 30 mins incubation with compound
Protocol: (§3) Purified His-tagged TEAD protein (YAP Binding Domain, amino acids 217-447) is pre-incubated with Europium labelled anti-His antibody tracer (Perkin Elmer Cat #AD0110). Small molecule Inhibitors are then incubated with the TEAD-Eu protein complex for 30 minutes or 4 hours to allow for binding to TEAD protein. Biotinylated YAP peptide for TEAD-YAP assays (AA's 50-100) or biotinylated TAZ peptide for TEAD-TAZ assays (AA's 13-57) that has been pre-incubated with streptavidin −xl665 acceptor (CIS-Bio Cat #610SAXAC) or is added to the compound-TEAD mix. The TEAD-YAP-inhibitor mixture is then incubated for 60 minutes at room temperature. All reactions are carried out in a polystyrene plate. After 60 minutes, the plate is read on a plate reader using TR-FRET mode with wavelengths of 665 nm/615 nm. If YAP or TAZ binds to TEAD as expected, a TR-FRET signal results from the proximity of YAP or TAZ and TEAD after binding. If an inhibitor such as peptide 17 (Selleckchem Cat #S8164) interferes with YAP-TEAD or TAZ-TEAD binding, the disruption of the YAP or TAZ:TEAD interaction results in a decrease in TR-FRET signal. The potency of compounds as YAP:TEAD or TAZ:TEAD protein-protein interaction (PPi) inhibitors is determined by an IC50 or EC50 value generated using a non-linear four parameter curve fit. The extent to which representative examples of the disclosed compounds are able to inhibit interaction between TEAD1, TEAD2, TEAD3 or TEAD4 and YAP truncated from amino acids 50-100 or TAZ truncated from amino acids 13-57 as measured by Homogeneous Time Resolved Fluorescence (HTRF) to generate EC50 and IC50 data.
(§4) Note that the “Compound Number” in Table 4 corresponds to the “Compound Number” in Table 1. […]

TEAD2 YAP50-100 = TEAD2 YAP50-100 (Homo sapiens (Human), UniProt Q15562); test: TEAD-YAP protein-protein interaction HTRF assay; settings: TEAD2 YAP50-100 HTRF combined EC50, 30 mins incubation with compound
Protocol: as §3, §4

TEAD3 YAP50-100 = TEAD3 YAP50-100 (Homo sapiens (Human), UniProt Q99594); test: TEAD-YAP protein-protein interaction HTRF assay; settings: TEAD3 YAP50-100 HTRF combined EC50, 30 mins incubation with compound
Protocol: as §3, §4

TEAD4 YAP50-100 = TEAD4 YAP50-100 (Homo sapiens (Human), UniProt Q15561); test: TEAD-YAP protein-protein interaction HTRF assay; settings: TEAD4 YAP50-100 HTRF combined EC50, 30 mins incubation with compound
Protocol: as §3, §4

Sequence of TEAD3 YAP50-100 (Q99594 218-435): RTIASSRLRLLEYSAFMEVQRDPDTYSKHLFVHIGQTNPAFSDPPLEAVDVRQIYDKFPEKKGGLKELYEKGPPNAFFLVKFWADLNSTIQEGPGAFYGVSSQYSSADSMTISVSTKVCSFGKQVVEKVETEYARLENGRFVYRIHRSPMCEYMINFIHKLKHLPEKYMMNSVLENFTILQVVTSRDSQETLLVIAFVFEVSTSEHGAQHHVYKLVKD
Sequence of TEAD1 (P28347 whole entry, species assumed): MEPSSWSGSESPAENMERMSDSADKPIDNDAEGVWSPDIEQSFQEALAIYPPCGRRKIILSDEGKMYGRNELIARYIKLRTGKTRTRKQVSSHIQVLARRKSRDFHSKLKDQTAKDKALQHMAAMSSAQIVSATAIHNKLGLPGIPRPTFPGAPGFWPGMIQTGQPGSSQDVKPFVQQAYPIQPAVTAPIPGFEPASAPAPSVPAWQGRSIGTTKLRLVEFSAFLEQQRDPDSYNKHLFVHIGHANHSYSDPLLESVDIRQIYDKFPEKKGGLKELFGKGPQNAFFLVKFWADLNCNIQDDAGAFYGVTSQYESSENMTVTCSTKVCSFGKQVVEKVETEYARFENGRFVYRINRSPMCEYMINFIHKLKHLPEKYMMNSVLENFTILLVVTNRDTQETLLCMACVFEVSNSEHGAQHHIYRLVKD
Sequence of TEAD4 YAP50-100 (Q15561 217-434): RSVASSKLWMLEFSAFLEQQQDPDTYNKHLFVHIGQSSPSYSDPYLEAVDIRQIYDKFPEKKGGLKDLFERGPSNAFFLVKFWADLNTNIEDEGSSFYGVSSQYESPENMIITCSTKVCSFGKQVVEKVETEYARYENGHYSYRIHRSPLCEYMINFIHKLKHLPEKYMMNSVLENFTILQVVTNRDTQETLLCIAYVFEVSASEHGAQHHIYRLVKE
Sequence of TEAD4 (Q15561 whole entry, species assumed): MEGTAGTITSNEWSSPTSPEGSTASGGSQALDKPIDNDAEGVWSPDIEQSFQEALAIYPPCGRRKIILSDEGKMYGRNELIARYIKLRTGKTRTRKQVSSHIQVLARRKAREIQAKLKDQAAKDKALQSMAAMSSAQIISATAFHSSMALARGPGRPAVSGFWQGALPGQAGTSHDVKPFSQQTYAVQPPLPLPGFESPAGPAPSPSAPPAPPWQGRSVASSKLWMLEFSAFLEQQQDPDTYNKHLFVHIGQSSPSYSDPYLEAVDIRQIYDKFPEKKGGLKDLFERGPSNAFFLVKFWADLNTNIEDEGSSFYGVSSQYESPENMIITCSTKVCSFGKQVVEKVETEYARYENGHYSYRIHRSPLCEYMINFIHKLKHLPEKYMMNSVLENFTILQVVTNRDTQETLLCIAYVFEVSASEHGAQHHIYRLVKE
Sequence of TEAD2 (Q15562 whole entry): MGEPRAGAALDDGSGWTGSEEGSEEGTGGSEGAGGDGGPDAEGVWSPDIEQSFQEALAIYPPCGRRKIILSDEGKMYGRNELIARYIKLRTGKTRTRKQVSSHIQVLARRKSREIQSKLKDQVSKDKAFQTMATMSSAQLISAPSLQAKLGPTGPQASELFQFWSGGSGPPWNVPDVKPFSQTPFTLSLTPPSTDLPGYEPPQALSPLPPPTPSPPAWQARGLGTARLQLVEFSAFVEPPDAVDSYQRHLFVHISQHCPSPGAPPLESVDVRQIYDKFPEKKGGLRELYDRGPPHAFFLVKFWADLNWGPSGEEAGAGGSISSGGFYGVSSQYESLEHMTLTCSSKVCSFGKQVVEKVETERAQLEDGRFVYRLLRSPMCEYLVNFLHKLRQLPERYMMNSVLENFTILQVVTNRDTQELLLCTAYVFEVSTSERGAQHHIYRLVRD
Sequence of TEAD2 YAP50-100 (Q15562 217-447): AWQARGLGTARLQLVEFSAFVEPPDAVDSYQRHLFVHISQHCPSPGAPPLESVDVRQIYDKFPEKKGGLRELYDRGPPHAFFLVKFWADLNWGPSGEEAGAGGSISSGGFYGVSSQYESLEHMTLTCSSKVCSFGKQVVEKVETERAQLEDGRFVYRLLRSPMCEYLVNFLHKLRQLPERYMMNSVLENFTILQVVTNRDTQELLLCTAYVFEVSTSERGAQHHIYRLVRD
Sequence of TEAD3 (Q99594 whole entry, species assumed): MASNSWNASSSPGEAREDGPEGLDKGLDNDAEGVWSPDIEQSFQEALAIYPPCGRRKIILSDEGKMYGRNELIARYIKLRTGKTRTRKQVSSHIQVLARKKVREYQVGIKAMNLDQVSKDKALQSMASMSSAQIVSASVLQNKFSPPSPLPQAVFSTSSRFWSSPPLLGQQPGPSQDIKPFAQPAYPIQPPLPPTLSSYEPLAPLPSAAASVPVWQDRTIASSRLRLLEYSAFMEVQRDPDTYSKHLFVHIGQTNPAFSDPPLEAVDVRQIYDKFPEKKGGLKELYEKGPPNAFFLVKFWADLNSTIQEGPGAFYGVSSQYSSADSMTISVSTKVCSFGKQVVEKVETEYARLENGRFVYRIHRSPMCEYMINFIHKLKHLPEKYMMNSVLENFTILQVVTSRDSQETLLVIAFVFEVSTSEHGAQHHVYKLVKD
Sequence of TEAD1 YAP50-100 (P28347 209-426): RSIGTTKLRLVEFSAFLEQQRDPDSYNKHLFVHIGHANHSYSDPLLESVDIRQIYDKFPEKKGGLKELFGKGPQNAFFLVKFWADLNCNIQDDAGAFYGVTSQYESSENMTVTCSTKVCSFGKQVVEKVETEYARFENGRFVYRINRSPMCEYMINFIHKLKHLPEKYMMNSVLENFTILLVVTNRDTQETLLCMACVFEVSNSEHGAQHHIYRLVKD

SMILES	IC50 (TEAD1)	IC50 (TEAD2)	IC50 (TEAD3)	IC50 (TEAD4)	EC50 (TEAD1 YAP50-100)	EC50 (TEAD2 YAP50-100)	EC50 (TEAD3 YAP50-100)	EC50 (TEAD4 YAP50-100)
C=C(CNc1cc(-c2ccc(C(C)C(F)(F)F)cc2)c2c(c1C#N)CCO2)C(=O)O (single isomer, unassigned) [Enantiomer C from Example 16, 2-(((4-cyano-7-(4-(1,1,1-trifluoropropan-2-yl)phenyl)-2,3-dihydrobenzofuran-5-yl)amino)methyl)acrylic acid]	20 nM	40 nM	3000 nM	10 nM	10 nM	20 nM	5900 nM	10 nM
C=C(CNc1cc(-c2ccc(C(C)C(F)(F)F)cc2)c2c(c1C#N)CCO2)C(=O)O (single isomer, unassigned) [Enantiomer D from Example 16, 2-(((4-cyano-7-(4-(1,1,1-trifluoropropan-2-yl)phenyl)-2,3-dihydrobenzofuran-5-yl)amino)methyl)acrylic acid]	80 nM	160 nM	6100 nM	30 nM	40 nM	70 nM	> 50000 nM	100 nM
C=C(CNc1cc2c(c(-c3ccc(C(C)C)cc3)c1)OCC2)C(=O)O [Compound 1, 2-[[[7-(4-isopropylphenyl)-2,3-dihydrobenzofuran-5-yl]amino]methyl]prop-2-enoic acid]	220 nM	220 nM	8400 nM	40 nM	170 nM	100 nM	> 50000 nM	50 nM
C=C(CNc1cc2c(c(-c3ccc(C(C)C)cc3)c1)OCC2)C(N)=O [Compound 2, 2-[[[7-(4-isopropylphenyl)-2,3-dihydrobenzofuran-5-yl]amino]methyl]prop-2-enamide]	590 nM	80 nM	18000 nM	30 nM	460 nM	70 nM	18000 nM	90 nM
C=C(CNc1cc(-c2ccc(C(C)C)cc2)c2c(c1C#N)CCO2)C(=O)O [Compound 3, 2-[[[4-cyano-7-(4-isopropylphenyl)-2,3-dihydrobenzofuran-5-yl]amino]methyl]prop-2-enoic acid]	20 nM	60 nM	2880 nM	20 nM	20 nM	30 nM	6220 nM	30 nM
C=C(CNc1cc(-c2ccc(C(C)C)cc2)c2c(c1C#N)CCO2)C(N)=O [Compound 4, 2-[[[4-cyano-7-(4-isopropylphenyl)-2,3-dihydrobenzofuran-5-yl]amino]methyl]prop-2-enamide]	320 nM	100 nM	10000 nM	80 nM	230 nM	50 nM	13000 nM	160 nM
C=C(CNc1cc(-c2ccc(C(C)C)cc2)c2c(c1C#N)CCO2)C(=O)NC [Compound 5, 2-[[[4-cyano-7-(4-isopropylphenyl)-2,3-dihydrobenzofuran-5-yl]amino]methyl]-N-methyl-prop-2-enamide]	1600 nM	2000 nM	> 50000 nM	1300 nM	> 50000 nM	> 50000 nM	> 50000 nM	> 50000 nM
C=C(CNc1cc(-c2ccc(C(C)C)cc2)c2c(c1C#N)CCO2)C(=O)N(C)C [Compound 6, 2-[[[4-cyano-7-(4-isopropylphenyl)-2,3-dihydrobenzofuran-5-yl]amino]methyl]-N,N-dimethyl-prop-2-enamide]	1100 nM	3500 nM	> 50000 nM	500 nM	970 nM	2800 nM	> 50000 nM	1000 nM
C=C(CN(C)c1cc(-c2ccc(C(C)C)cc2)c2c(c1C#N)CCO2)C(=O)O [Compound 7, 2-[[[4-cyano-7-(4-isopropylphenyl)-2,3-dihydrobenzofuran-5-yl]-methyl-amino]methyl]prop-2-enoic acid]	540 nM	230 nM	14000 nM	160 nM	510 nM	180 nM	> 50000 nM	430 nM
C=C(CNc1cc(-c2ccc(C(C)C)cc2)c2c(c1C#N)CCO2)C(=O)OC [Compound 8, methyl 2-[[[4-cyano-7-(4-isopropylphenyl)-2,3-dihydrobenzofuran-5-yl]amino]methyl]prop-2-enoate]	70 nM	40 nM	240 nM	20 nM	> 50000 nM	> 50000 nM	> 50000 nM	> 50000 nM
C=C(CNc1cc(-c2ccc(C(C)C)cc2)c2c(c1C#N)CCO2)C(=O)NO [Compound 9, 2-[[[4-cyano-7-(4-isopropylphenyl)-2,3-dihydrobenzofuran-5-yl]amino]methyl]prop-2-enehydroxamic acid]	280 nM	110 nM	2400 nM	120 nM	190 nM	50 nM	2200 nM	280 nM
C=C(CNc1cc(-c2ccc(C(C)C)cc2)c2c(c1C#N)CCO2)B(O)O [Compound 10, 1-[[[4-cyano-7-(4-isopropylphenyl)-2,3-dihydrobenzofuran-5-yl]amino]methyl]vinylboronic acid]	6300 nM	2700 nM	> 50000 nM	1300 nM	5700 nM	2100 nM	> 50000 nM	2100 nM
C=C(CNc1cc(-c2ccc(C(C)C)cc2)c2c(c1C#N)CCO2)C(C)=O [Compound 11, 7-(4-isopropylphenyl)-5-[(2-methylene-3-oxo-butyl)amino]-2,3-dihydrobenzofuran-4-carbonitrile]	180 nM	80 nM	130 nM	40 nM	320 nM	130 nM	200 nM	80 nM
C=C(CNc1cc(-c2ccc(C(C)C)cc2)c2c(c1CO)CCO2)C(=O)O [Compound 12, 2-[[[4-(hydroxymethyl)-7-(4-isopropylphenyl)-2,3-dihydrobenzofuran-5-yl]amino]methyl]prop-2-enoic acid]	1500 nM	930 nM	47000 nM	470 nM	780 nM	300 nM	> 50000 nM	750 nM
C=C(CNc1cc(-c2ccc(C(C)C)cc2)c2c(c1CO)CCO2)C(N)=O [Compound 13, 2-[[[4-(hydroxymethyl)-7-(4-isopropylphenyl)-2,3-dihydrobenzofuran-5-yl]amino]methyl]prop-2-enamide]	780 nM	220 nM	11000 nM	180 nM	330 nM	40 nM	22000 nM	180 nM
C=C(CNc1cc(-c2ccc(C(C)C)cc2)c2c(c1CO)CCO2)C(=O)NO [Compound 14, 2-[[[4-(hydroxymethyl)-7-(4-isopropylphenyl)-2,3-dihydrobenzofuran-5-yl]amino]methyl]prop-2-enehydroxamic acid]	520 nM	120 nM	2400 nM	420 nM	280 nM	70 nM	3400 nM	890 nM

Reference: patent US11787775B2, “Therapeutic compounds and methods of use” (priority 2020, dated 2023)
